In ChEMBL document CHEMBL5584354, “Impact of Conjugation of the Reactive Oxygen Species (ROS)-Generating Catalytic Moiety with Membrane-Active Antimicrobial Peptoids: Promoting Multitarget Mechanism and Enhancing Selectivity” (J Med Chem, 2024):
Values after ≈ are worked out from the molar mass of the structure shown. Non-standard residues stand in square brackets, D forms with d. Residues, ends and D or L forms follow the SMILES beside them. *: point of attachment. X3 = NC(=O)[C@H](Cc1c[nH]cn1)NC(=O)CNC(=O)[C@@H](N)CN(CCc1c[nH]c2ccccc12)*; X2 = C[C@@H](c1ccccc1)N(C[C@H](N)C(=O)NCC(=O)N[C@@H](Cc1c[nH]cn1)C(N)=O)*; X1 = NC(=O)[C@H](Cc1c[nH]cn1)NC(=O)CNC(=O)[C@@H](N)CN*; Gly(N(CH2)2(3-indolyl)) = O=C(O)CNCCc1c[nH]c2ccccc12; Nspe = C[C@H](NCC(=O)O)c1ccccc1; Nphe = O=C(O)CNCc1ccccc1; Nlys = NCCCCNCC(=O)O

What was measured:
Escherichia coli = assay: Antibacterial activity against Escherichia coli ATCC 25922 assessed as inhibition of bacterial growth incubated for 24 hrs by broth dilution method; assay type: functional
Staphylococcus aureus = assay: Antibacterial activity against Staphylococcus aureus ATCC 25923 assessed as inhibition of bacterial growth incubated for 24 hrs by broth dilution method; assay type: functional
[1] = Hemolytic activity in male Sprague-Dawley rat erythrocytes at 25 uM incubated for 1 hr by absorbance based method relative to control; assay type: toxicity, cell-based, Erythrocyte; conditions: read-out: Activity
[2] = Hemolytic activity in male Sprague-Dawley rat erythrocytes at 50 uM incubated for 1 hr by absorbance based method relative to control; assay type: toxicity, cell-based, Erythrocyte; conditions: read-out: Activity
[3] = Hemolytic activity in male Sprague-Dawley rat erythrocytes at 100 uM incubated for 1 hr by absorbance based method relative to control; assay type: toxicity, cell-based, Erythrocyte; conditions: read-out: Activity
Erythrocyte = assay: Hemolytic activity in male Sprague-Dawley rat erythrocytes assessed as concentration required for 10% hemolysis incubated for 1 hr by absorbance based method; assay type: toxicity, cell-based
[4] = Hemolytic activity in male Sprague-Dawley rat erythrocytes assessed as concentration required for 50% hemolysis incubated for 1 hr by absorbance based method; assay type: toxicity, cell-based, Erythrocyte
[5] = Selectivity index, ratio of HC10 for hemolytic activity in male Sprague-Dawley rat erythrocytes to MIC for antibacterial activity against Escherichia coli ATCC 25922; assay type: toxicity; conditions: read-out: Selectivity Index

Row | MIC (Escherichia coli) | MIC (Staphylococcus aureus) | Structure (SMILES) | hemolysis at 1 h, 25 µM [1] | hemolysis at 1 h, 50 µM [2] | hemolysis at 1 h, 100 µM [3] | HC10 (Erythrocyte) | HC50 at 1 h [4] | selectivity ratio [5]
1 | 12.5 µM (≈ 25.2 µg/mL) | 25 µM (≈ 50.4 µg/mL) | C[C@@H](c1ccccc1)N(CC(=O)N(CCCCN)CC(=O)N(CC(=O)N(CC(=O)N(CCCCN)CC(=O)N(CC(=O)N(CC(N)=O)Cc1ccccc1)Cc1ccccc1)[C@@H](C)c1ccccc1)[C@@H](C)c1ccccc1)C(=O)CN(C(=O)CN(CCCCN)C(=O)CN(Cc1ccccc1)C(=O)CN(Cc1ccccc1)C(=O)CN(CCCCN)C(=O)[C@H](Cc1c[nH]cn1)NC(=O)CNC(=O)CN)[C@@H](C)c1ccccc1 (H-GGH[Nlys][Nphe][Nphe][Nlys][Nspe][Nspe][Nlys][Nspe][Nspe][Nlys][Nphe][Nphe]-NH2) | 3.01% | 8.68% | 18.4% | 56.5 µM | > 100 µM | 4.5
2 | 12.5 µM (≈ 24.6 µg/mL) | 6.3 µM (≈ 12.4 µg/mL) | C[C@@H](c1ccccc1)N(CC(N)=O)C(=O)CN(CCCCN)C(=O)CN(C(=O)CN(C(=O)CN(CCCCN)C(=O)CN(C(=O)CN(C(=O)CN(CCCCN)C(=O)CN(C(=O)CN(C(=O)CN(CCCCN)C(=O)CNC(=O)[C@H](Cc1c[nH]cn1)NC(=O)CNC(=O)CN)[C@@H](C)c1ccccc1)[C@@H](C)c1ccccc1)[C@@H](C)c1ccccc1)[C@@H](C)c1ccccc1)[C@@H](C)c1ccccc1)[C@@H](C)c1ccccc1 (H-GGHG[Nlys][Nspe][Nspe][Nlys][Nspe][Nspe][Nlys][Nspe][Nspe][Nlys][Nspe]-NH2) | 6.5% | 22.4% | 49.8% | 27.7 µM | 100 µM | 2.2
3 | 6.3 µM (≈ 13.4 µg/mL) | 1.6 µM (≈ 3.39 µg/mL) | C[C@@H](c1ccccc1)N(CC(=O)N(CCCCN)CC(=O)N(CC(=O)N(CC(=O)N(CCCCN)CC(=O)N(CC(=O)N(CC(=O)N(CCCCN)CC(=O)N(CCc1c[nH]c2ccccc12)CC(=O)N(CCc1c[nH]c2ccccc12)C[C@H](N)C(=O)NCC(=O)N[C@@H](Cc1c[nH]cn1)C(N)=O)[C@@H](C)c1ccccc1)[C@@H](C)c1ccccc1)[C@@H](C)c1ccccc1)[C@@H](C)c1ccccc1)C(=O)CN(C(=O)CNCCCCN)[C@@H](C)c1ccccc1 (H-[Nlys][Nspe][Nspe][Nlys][Nspe][Nspe][Nlys][Nspe][Nspe][Nlys][Gly(N(CH2)2(3-indolyl))]-X3) | 11.1% | 20.3% | 29% | 25.4 µM | > 100 µM | 4
4 | 25 µM (≈ 53 µg/mL) | 3.1 µM (≈ 6.57 µg/mL) | C[C@@H](c1ccccc1)N(CC(=O)N(CCCCN)CC(=O)N(CC(=O)N(CC(=O)N(CCCCN)CC(=O)N(CC(=O)N(C[C@H](N)C(=O)NCC(=O)N[C@@H](Cc1c[nH]cn1)C(N)=O)[C@@H](C)c1ccccc1)[C@@H](C)c1ccccc1)[C@@H](C)c1ccccc1)[C@@H](C)c1ccccc1)C(=O)CN(C(=O)CN(CCCCN)C(=O)CN(CCc1c[nH]c2ccccc12)C(=O)CN(CCc1c[nH]c2ccccc12)C(=O)CNCCCCN)[C@@H](C)c1ccccc1 (H-[Nlys][Gly(N(CH2)2(3-indolyl))][Gly(N(CH2)2(3-indolyl))][Nlys][Nspe][Nspe][Nlys][Nspe][Nspe][Nlys][Nspe]-X2) | 8.35% | 14% | 23.8% | 31.9 µM | > 100 µM | 1.2
5 | 6.3 µM (≈ 10.4 µg/mL) | 1.6 µM (≈ 2.65 µg/mL) | C[C@@H](c1ccccc1)N(CC(N)=O)C(=O)CN(CCCCN)C(=O)CN(C(=O)CN(C(=O)CN(CCCCN)C(=O)CN(C(=O)CN(C(=O)CN(CCCCN)C(=O)CN(C(=O)CN(C(=O)CNCCCCN)[C@@H](C)c1ccccc1)[C@@H](C)c1ccccc1)[C@@H](C)c1ccccc1)[C@@H](C)c1ccccc1)[C@@H](C)c1ccccc1)[C@@H](C)c1ccccc1 (H-[Nlys][Nspe][Nspe][Nlys][Nspe][Nspe][Nlys][Nspe][Nspe][Nlys][Nspe]-NH2) | 40.3% | 97.6% | 96.5% | 9.64 µM | 28.3 µM | 1.5
6 | 6.3 µM (≈ 12 µg/mL) | 1.6 µM (≈ 3.04 µg/mL) | C[C@@H](c1ccccc1)N(CC(=O)N(CCCCN)CC(=O)N(CC(=O)N(CC(=O)N(CCCCN)CC(=O)N(CC(=O)N(CC(=O)N(CCCCN)CC(=O)N(CCc1c[nH]c2ccccc12)CC(=O)N(CCc1c[nH]c2ccccc12)CC(N)=O)[C@@H](C)c1ccccc1)[C@@H](C)c1ccccc1)[C@@H](C)c1ccccc1)[C@@H](C)c1ccccc1)C(=O)CN(C(=O)CNCCCCN)[C@@H](C)c1ccccc1 (H-[Nlys][Nspe][Nspe][Nlys][Nspe][Nspe][Nlys][Nspe][Nspe][Nlys][Gly(N(CH2)2(3-indolyl))][Gly(N(CH2)2(3-indolyl))]-NH2) | 29.9% | 50.7% | 69.4% | 7.7 µM | 63.8 µM | 1.2
7 | 12.5 µM (≈ 24.9 µg/mL) | 12.5 µM (≈ 24.9 µg/mL) | C[C@@H](c1ccccc1)N(CC(=O)NCC(=O)NC[C@H](N)C(=O)NCC(=O)N[C@@H](Cc1c[nH]cn1)C(N)=O)C(=O)CN(CCCCN)C(=O)CN(C(=O)CN(C(=O)CN(CCCCN)C(=O)CN(C(=O)CN(C(=O)CN(CCCCN)C(=O)CN(C(=O)CN(C(=O)CNCCCCN)[C@@H](C)c1ccccc1)[C@@H](C)c1ccccc1)[C@@H](C)c1ccccc1)[C@@H](C)c1ccccc1)[C@@H](C)c1ccccc1)[C@@H](C)c1ccccc1 (H-[Nlys][Nspe][Nspe][Nlys][Nspe][Nspe][Nlys][Nspe][Nspe][Nlys][Nspe]G-X1) | 2.02% | 8.79% | 23.2% | 51.1 µM | > 100 µM | 4
8 | 12.5 µM (≈ 21.5 µg/mL) | 6.3 µM (≈ 10.8 µg/mL) | C[C@@H](c1ccccc1)N(CC(=O)N(CCCCN)CC(=O)N(CC(=O)N(CC(=O)N(CCCCN)CC(=O)N(CC(=O)N(CC(=O)N(CCCCN)CC(=O)N(CC(=O)N(CC(N)=O)Cc1ccccc1)Cc1ccccc1)Cc1ccccc1)Cc1ccccc1)Cc1ccccc1)Cc1ccccc1)C(=O)CN(Cc1ccccc1)C(=O)CNCCCCN (H-[Nlys][Nphe][Nspe][Nlys][Nphe][Nphe][Nlys][Nphe][Nphe][Nlys][Nphe][Nphe]-NH2) | 0.21% | 3.75% | 13.7% | 81.3 µM | > 100 µM | 6.5
9 | 6.3 µM (≈ 11.7 µg/mL) | 3.1 µM (≈ 5.78 µg/mL) | C[C@@H](c1ccccc1)N(CC(N)=O)C(=O)CN(CCCCN)C(=O)CN(CCCCN)C(=O)CN(C(=O)CN(C(=O)CN(CCCCN)C(=O)CN(C(=O)CN(C(=O)CN(CCCCN)C(=O)CN(CCc1c[nH]c2ccccc12)C(=O)CN(CCc1c[nH]c2ccccc12)C(=O)CNCCCCN)[C@@H](C)c1ccccc1)[C@@H](C)c1ccccc1)[C@@H](C)c1ccccc1)[C@@H](C)c1ccccc1 | 4.95% | 8.77% | 11.1% | 75.3 µM | > 100 µM | 13.5
10 | 6.3 µM (≈ 11.1 µg/mL) | 3.1 µM (≈ 5.47 µg/mL) | C[C@@H](c1ccccc1)N(CC(=O)N(CCCCN)CC(=O)N(CC(=O)N(CC(=O)N(CCCCN)CC(=O)N(CC(=O)N(CC(N)=O)Cc1ccccc1)Cc1ccccc1)[C@@H](C)c1ccccc1)[C@@H](C)c1ccccc1)C(=O)CN(C(=O)CN(CCCCN)C(=O)CN(Cc1ccccc1)C(=O)CN(Cc1ccccc1)C(=O)CNCCCCN)[C@@H](C)c1ccccc1 (H-[Nlys][Nphe][Nphe][Nlys][Nspe][Nspe][Nlys][Nspe][Nspe][Nlys][Nphe][Nphe]-NH2) | 12.5% | 29% | 60.9% | 22.3 µM | 83 µM | 3.5
